target: HGFR (c-Met) (Homo sapiens, UniProt P08581); assay: HGFR Continuous-Coupled Spectrophotometric Assay; format: biochemical; settings: HGFR enzyme 50 nM, Met-2 peptide substrate, 37° C.
Experimental: The general procedure is as follows: compounds and kinase assay reagents are introduced into test wells. The assay is initiated by addition of the kinase enzyme. Enzyme inhibitors reduce the measured activity of the enzyme.
In the continuous-coupled spectrophotometric assay the time-dependent production of ADP by the kinase is determined by analysis of the rate of consumption of NADH by measurement of the decrease in absorbance at 340 nm. As the PK produces ADP it is re-converted to ATP by reaction with phosphoenol pyruvate and pyruvate kinase. Pyruvate is also produced in this reaction. Pyruvate is subsequently converted to lactate by reaction with lactate dehydrogenase, which simultaneously converts NADH to NAD.
HGFR Continuous-Coupled Spectrophotometric Assay
This assay analyzes the tyrosine kinase activity of HGFR on the Met-2 substrate peptide, a peptide derived from the activation loop of the HGFR.
• 1. […] Dissolve up in 200 mM HEPES, pH 7.5 at 10 mM stock. • 3. 1 M PEP (phospho-enol-pyruvate) in 200 mM HEPES, pH 7.5 • 4. 100 mM NADH (B-Nicotinamide Adenine Dinucleotide, Reduced Form) in 200 mM HEPES, pH 7.5 • 5. 4 M MgCl2 (Magnesium Chloride) in ddH2O 6. 1 M DTT (Dithiothreitol) in 200 mM HEPES, pH 7.5 • 7. 15 Units/mL LDH (Lactic Dehydrogenase) • 8. 15 Units/mL PK (Pyruvate Kinase) • 9. 5M NaCl dissolved in ddH2O • 10. Tween-20 (Protein Grade) 10% Solution • 11. 1 M HEPES buffer: (N-[2-Hydroxethyl]piperazine-N-[2-ethanesulfonic acid]) Sodium Salt. Dissolve in ddH2O, adjust pH to 7.5, bring volume to 1 L. Filter at 0.1 μm. • 12. […] 100% DMSO (SIGMA) • 14. […] Beckman DU-650 w/ micro cell holders • 18. Beckman 4-position micro cell cuvette Procedure:
Prep Dilution Buffer (DB) for Enzyme (For 30 mL prep) • 1. DB final concentration is 2 mM DTT, 25 mM NaCl2, 5 mM MgCl2, 0.01% Tween-20, and 50 mM HEPES buffer, pH 7.5. • 2. Make up 50 mM HEPES by adding 1.5 mL 1 M HEPES into 28.1 mL of ddH2O. Add rest of the reagents. Into 50 mL conical vial, add 60 μL of 1M DTT, 150 μL 5M NaCl2, 150 μL 1M MgCl2, and 30 μL of 10% Tween-20 to give total volume of 30 mL. • 3. Vortex for 5-10 seconds. • 4. Aliquot out DB at 1 mL/tube and label tubes as “DB HGFR” • 5. Note: This can be prepared and stored ahead of time. • 6. Freeze un-used aliquots in microcentrifuge tubes at −20° C. freezer.
Prep Compounds • 1. For compound dilution plate, add 4 μL of 10 mM stock into column 1 of plate, and bring volume to 100 μL with 100% DMSO. • 2. Set up the Precision 2000 dilution method. A final concentration of 200 μM compound in 50% DMSO, 100 mM HEPES (1:2 serial dilution).
Prep Coupled Enzymatic Buffer:
1. Final concentration in assay:
• 2. For a 10 mL reaction buffer add 10 μL of 1M PEP, 33 μL of 100 mM NADH, 50 μL of 4M MgCl2, 20 μL of 1M DTT, 6 μL of 500 mM ATP, and […] of 10 mM Met-2 peptide into 100 mM HEPES buffer pH 7.5 and vortex/mix. • 3. Add coupling enzymes, LDH and PK, into reaction mix. Mix by gentle inversion.
1. Spectrophotometer settings:
• 2. Add 85 μL of CE reaction mix into each well of assay plate. • 3. Add 5 μL of diluted compound into a well of the assay plate. • 4. Add 5 μL of 50% DMSO for negative control into last column of assay plate. • 5. Mix with multi-channel pipettor or orbital shaker. • 6. Pre-incubate for 10 minutes at 37° C. • 7. Add 10 μL of 500 nM HGFR to each well of assay plate; the final HGFR concentration is 50 nM in a total final volume of 100 μL. • 8. Measure activity for 10 minutes at λ=340 nm and 37° C.
Ki data were obtained using the HGFR Continuous-Coupled Spectrophotometric Assay, and IC50 data were obtained using the Cellular HGFR Autophosphorylation Assay, both of which are described above.

Sequence of HGFR (c-Met) (P08581 974-1390): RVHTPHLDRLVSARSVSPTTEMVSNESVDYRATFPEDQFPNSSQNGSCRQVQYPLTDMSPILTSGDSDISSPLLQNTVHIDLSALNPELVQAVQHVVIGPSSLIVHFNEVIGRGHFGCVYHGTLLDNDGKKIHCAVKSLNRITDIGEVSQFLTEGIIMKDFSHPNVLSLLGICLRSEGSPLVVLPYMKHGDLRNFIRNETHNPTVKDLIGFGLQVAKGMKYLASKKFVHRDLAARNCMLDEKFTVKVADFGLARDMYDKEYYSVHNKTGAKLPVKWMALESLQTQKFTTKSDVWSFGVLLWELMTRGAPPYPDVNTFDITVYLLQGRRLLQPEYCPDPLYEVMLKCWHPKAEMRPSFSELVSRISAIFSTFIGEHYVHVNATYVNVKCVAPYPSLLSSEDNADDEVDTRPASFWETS

Row | SMILES | Ki [nM]
1 | CC(Oc1cc(-c2ccc(C(=O)N3CCC(N4CCCC4)CC3)cc2)cnc1N)c1ccccc1 (stereo not drawn) [Example 53, {4-[6-Amino-5-(1-phenyl-ethoxy)-pyridin-3-yl]-phenyl}-(4-pyrrolidin-1-yl-piperidin-1-yl)-methanone] | 11000
2 | CC(Oc1cc(-c2ccc(F)c(C(=O)N3C[C@@H](C)N[C@@H](C)C3)c2)cnc1N)c1c(Cl)ccc(F)c1Cl (stereo partly drawn) [Example 54, (5-{6-Amino-5-[1-(2,6-dichloro-3-fluoro-phenyl)-ethoxy]-pyridin-3-yl}-2-fluoro-phenyl)-(dimethyl-piperazin-1-yl)-methanone] | 79
3 | CC(Oc1cc(-c2ccc(F)c(C(=O)N3CCC(N4CCCC4)CC3)c2)cnc1N)c1c(Cl)ccc(F)c1Cl (stereo not drawn) [Example 55, (5-{6-Amino-5-[1-(2,6-dichloro-3-fluoro-phenyl)-ethoxy]-pyridin-3-yl}-2-fluoro-phenyl)-(4-pyrrolidin-1-yl-piperidin-1-yl)-methanone] | 102
4 | Cc1ccc(F)c(C(C)Oc2cc(-c3ccc(C(=O)N4CCC(N5CCCC5)CC4)cc3)cnc2N)c1Cl (stereo not drawn) [Example 56, (4-{6-Amino-5-[1-(2-chloro-6-fluoro-3-methyl-phenyl)-ethoxy]-pyridin-3-yl}-phenyl)-(4-pyrrolidin-1-yl-piperidin-1-yl)-methanone] | 173
5 | CC(Oc1cc(-c2cn(CC(=O)OC(C)(C)C)cn2)cnc1N)c1c(Cl)ccc(F)c1Cl (stereo not drawn) [Example 58, (4-{6-Amino-5-[1-(2,6-dichloro-3-fluoro-phenyl)-ethoxy]-pyridin-3-yl}-imidazol-1-yl)-acetic acid tert-butyl ester] | 578
6 | CC(Oc1cc(-c2cn(CCN3CCOCC3)cn2)cnc1N)c1c(Cl)ccc(F)c1Cl (stereo not drawn) [Example 59, 3-[1-(2,6-Dichloro-3-fluoro-phenyl)-ethoxy]-5-[1-(2-morpholin-4-yl-ethyl)-1H-imidazol-4-yl]-pyridin-2-ylamine] | 155
7 | CC(Oc1cc(-c2cn(CC(=O)NCCN3CCCC3)cn2)cnc1N)c1c(Cl)ccc(F)c1Cl (stereo not drawn) [Example 60, 2-(4-{6-Amino-5-[1-(2,6-dichloro-3-fluoro-phenyl)-ethoxy]-pyridin-3-yl}-imidazol-1-yl)-N-(2-pyrrolidin-1-yl-ethyl)-acetamide] | 599
8 | CC(Oc1cc(-c2ccc(N3CCOCC3)nc2)cnc1N)c1c(Cl)ccc(F)c1Cl (stereo not drawn) [Example 61, 5-[1-(2,6-Dichloro-3-fluoro-phenyl)-ethoxy]-6′-morpholin-4-yl-[3,3′]bipyridinyl-6-ylamine] | 72
9 | CC(Oc1cc(-c2ccc(N3CCN(C)CC3)nc2)cnc1N)c1c(Cl)ccc(F)c1Cl (stereo not drawn) [Example 63, 5-[1-(2,6-Dichloro-3-fluoro-phenyl)-ethoxy]-6′-(4-methyl-piperazin-1-yl)-[3,3′]bipyridinyl-6-ylamine] | 35.3
10 | CC(Oc1cc(-c2ccc(N3CCC(O)CC3)nc2)cnc1N)c1c(Cl)ccc(F)c1Cl (stereo not drawn) [Example 64, 6″-Amino-5″-[1-(2,6-dichloro-3-fluoro-phenyl)-ethoxy]-3,4,5,6-tetrahydro-2H-[1,2′;5′,3″]terpyridin-4-ol] | 19.3
11 | CC(Oc1cc(-c2ccc(N3CCC(CO)CC3)nc2)cnc1N)c1c(Cl)ccc(F)c1Cl (stereo not drawn) [Example 65, {6″-Amino-5″-[1-(2,6-dichloro-3-fluoro-phenyl)-ethoxy]-3,4,5,6-tetrahydro-2H-[1,2′;5′,3″]terpyridin-4-yl}-methanol] | 43.5
12 | CC(Oc1cc(-c2ccc(N3CCN(CCO)CC3)nc2)cnc1N)c1c(Cl)ccc(F)c1Cl (stereo not drawn) [Example 66, 2-(4-{6′-Amino-5′-[1-(2,6-dichloro-3-fluoro-phenyl)-ethoxy]-[3,3′]bipyridinyl-6-yl}-piperazin-1-yl)-ethanol] | 32.7
13 | CC(Oc1cc(-c2ccc(N3CCC(N4CCCC4)CC3)nc2)cnc1N)c1c(Cl)ccc(F)c1Cl (stereo not drawn) [Example 67, 5″-[1-(2,6-Dichloro-3-fluoro-phenyl)-ethoxy]-4-pyrrolidin-1-yl-3,4,5,6-tetrahydro-2H-[1,2′;5′,3″]terpyridin-6″-ylamine] | 23.1
14 | CCN(CC)CCC(=O)NCc1cccc(-c2cnc(N)c(OC(C)c3c(Cl)ccc(F)c3Cl)c2)c1 (stereo not drawn) [Example 68, N-(3-{6-Amino-5-[1-(2,6-dichloro-3-fluoro-phenyl)-ethoxy]-pyridin-3-yl}-benzyl)-3-diethylamino-propionamide] | 68.1
15 | CC(Oc1cc(-c2ccc(N3CCN(CCN(C)C)CC3)nc2)cnc1N)c1c(Cl)ccc(F)c1Cl (stereo not drawn) [Example 69, 5-[1-(2,6-Dichloro-3-fluoro-phenyl)-ethoxy]-6′-[4-(2-dimethylamino-ethyl)-piperazin-1-yl]-[3,3′]bipyridinyl-6-ylamine] | 39
16 | CC(Oc1cc(-c2cccc(CNC(=O)CN(C)C)c2)cnc1N)c1c(Cl)ccc(F)c1Cl (stereo not drawn) [Example 70, N-(3-{6-Amino-5-[1-(2,6-dichloro-3-fluoro-phenyl)-ethoxy]-pyridin-3-yl}-benzyl)-2-dimethylamino-acetamide] | 52
17 | CC(Oc1cc(-c2ccc(OC3CCNCC3)nc2)cnc1N)c1c(Cl)ccc(F)c1Cl (stereo not drawn) [Example 71, 5-[1-(2,6-Dichloro-3-fluoro-phenyl)-ethoxy]-6′-(piperidin-4-yloxy)-[3,3′]bipyridinyl-6-ylamine] | 27
18 | CC(Oc1cc(-c2cccc(CNC(=O)CCN)c2)cnc1N)c1c(Cl)ccc(F)c1Cl (stereo not drawn) [Example 72, 3-Amino-N-(3-{6-amino-5-[1-(2,6-dichloro-3-fluoro-phenyl)-ethoxy]-pyridin-3-yl}-benzyl)-propionamide] | 49
19 | CC(Oc1cc(-c2ccc(N3CCNCC3)nc2)cnc1N)c1c(Cl)ccc(F)c1Cl (stereo not drawn) [Example 73, 5-[1-(2,6-Dichloro-3-fluoro-phenyl)-ethoxy]-6′-piperazin-1-yl-[3,3′]bipyridinyl-6-ylamine] | 21
20 | CC(Oc1cc(-c2ccc(OCCC3CCNCC3)nc2)cnc1N)c1c(Cl)ccc(F)c1Cl (stereo not drawn) [Example 74, 5-[1-(2,6-Dichloro-3-fluoro-phenyl)-ethoxy]-6′-(2-piperidin-4-yl-ethoxy)-[3,3′]bipyridinyl-6-ylamine] | 47
21 | CC(Oc1cc(-c2ccc(NCCN3CCCC3)nc2)cnc1N)c1c(Cl)ccc(F)c1Cl (stereo not drawn) [Example 75, 5-[1-(2,6-Dichloro-3-fluoro-phenyl)-ethoxy]-N6′-(2-pyrrolidin-1-yl-ethyl)-[3,3′]bipyridinyl-6,6′-diamine] | 28
22 | CC(Oc1cc(-c2ccc(NC3CCNCC3)nc2)cnc1N)c1c(Cl)ccc(F)c1Cl (stereo not drawn) [Example 76, 5-[1-(2,6-Dichloro-3-fluoro-phenyl)-ethoxy]-N6′-piperidin-4-yl-[3,3′]bipyridinyl-6,6′-diamine] | 22
23 | CC(Oc1cc(-c2cn(C3CCNCC3)cn2)cnc1N)c1c(Cl)ccc(F)c1Cl (stereo not drawn) [Example 77, 3-[1-(2,6-Dichloro-3-fluoro-phenyl)-ethoxy]-5-(1-piperidin-4-yl-1H-imidazol-4-yl)-pyridin-2-ylamine] | 38
24 | CCOc1ccc(Cl)c(C(C)Oc2cc(-c3ccc(C(=O)N4CCNCC4)cc3)cnc2N)c1Cl (stereo not drawn) [Example 78, (4-{6-Amino-5-[1-(2,6-dichloro-3-ethoxy-phenyl)-ethoxy]-pyridin-3-yl}-phenyl)-piperazin-1-yl-methanone] | 57

Reference: patent US20060178374A1, “Aminoheteroaryl compounds as protein kinase inhibitors” (AGOURON PHARMACEUTICALS, INC., priority 2004, published 2006)
